# According to PubChem BioAssay (NCI):
#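 Growth conditions: 96-well plates. Treatment: test compound, 48 hours, 5 concentrations. Analysis: linear interpolation between bracketing concentrations; unreached endpoints set to highest concentration. Here, GI50 denotes the concentration required for 50% inhibition of growth. TGI marks complete inhibition of growth.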
# Assays:
# Assay in all cases: DTP human tumour cell line panel, 48 h
# UO-31 renal = tested on: UO-31 renal
# UACC-257 melanoma = tested on: UACC-257 melanoma
# HCC-2998 colon = tested on: HCC-2998 colon
# TK-10 renal = tested on: TK-10 renal
# A498 renal = tested on: A498 renal
# OVCAR-4 ovarian = tested on: OVCAR-4 ovarian
# NCI-H226 lung = tested on: NCI-H226 lung
# HOP-62 NSCLC = tested on: HOP-62 NSCLC
# ACHN renal = tested on: ACHN renal
# PC-3 prostate = tested on: PC-3 prostate
# SNB-75 CNS = tested on: SNB-75 CNS
# OVCAR-3 ovarian = tested on: OVCAR-3 ovarian
# K-562 leukemia = tested on: K-562 leukemia
# A549 NSCLC = tested on: A549 NSCLC
# MCF7 breast = tested on: MCF7 breast
# MDA-MB-435 = tested on: MDA-MB-435
# BT-549 breast = tested on: BT-549 breast
# OVCAR-5 ovarian = tested on: OVCAR-5 ovarian
# SK-MEL-2 melanoma = tested on: SK-MEL-2 melanoma
# HS 578T breast = tested on: HS 578T breast
# HOP-92 NSCLC = tested on: HOP-92 NSCLC
# SK-OV-3 ovarian = tested on: SK-OV-3 ovarian
# RPMI-8226 leukemia = tested on: RPMI-8226 leukemia
# SF-268 CNS = tested on: SF-268 CNS
# SR leukemia = tested on: SR leukemia
# RXF 393 renal = tested on: RXF 393 renal
# COLO 205 colon = tested on: COLO 205 colon
# MOLT-4 leukemia = tested on: MOLT-4 leukemia
# KM12 colon = tested on: KM12 colon
# SW-620 colon = tested on: SW-620 colon
# DU-145 prostate = tested on: DU-145 prostate
# NCI/ADR-RES ovarian = tested on: NCI/ADR-RES ovarian
# IGROV1 ovarian = tested on: IGROV1 ovarian
# U251 CNS = tested on: U251 CNS
# M14 melanoma = tested on: M14 melanoma
# OVCAR-8 ovarian = tested on: OVCAR-8 ovarian
# HL-60(TB) leukemia = tested on: HL-60(TB) leukemia
# SN12C renal = tested on: SN12C renal
# HCT-15 colon = tested on: HCT-15 colon
# CCRF-CEM leukemia = tested on: CCRF-CEM leukemia
# 786-0 renal = tested on: 786-0 renal
# UACC-62 melanoma = tested on: UACC-62 melanoma
# SK-MEL-5 melanoma = tested on: SK-MEL-5 melanoma
# HCT-116 colon = tested on: HCT-116 colon
# SNB-19 CNS = tested on: SNB-19 CNS
# MDA-MB-231 breast = tested on: MDA-MB-231 breast
# NCI-H23 lung = tested on: NCI-H23 lung
# MALME-3M melanoma = tested on: MALME-3M melanoma
# NCI-H460 lung = tested on: NCI-H460 lung
# T-47D breast = tested on: T-47D breast
# SF-295 CNS = tested on: SF-295 CNS
smiles,measurement,setting,value
CN(C)CCS(=O)(=O)Nc1cc(-c2ccc3ncnc(Nc4ccc(F)c(Cl)c4)c3c2)cnc1Cl,GI50,UO-31 renal,259 nM
same,TGI,UO-31 renal,1690 nM
same,GI50,UACC-257 melanoma,775 nM
same,TGI,UACC-257 melanoma,6810 nM
same,GI50,HCC-2998 colon,1050 nM
same,TGI,HCC-2998 colon,3040 nM
same,GI50,TK-10 renal,188 nM
same,TGI,TK-10 renal,1310 nM
same,GI50,A498 renal,336 nM
same,TGI,A498 renal,1170 nM
same,GI50,OVCAR-4 ovarian,1290 nM
same,TGI,OVCAR-4 ovarian,> 100000 nM
same,GI50,NCI-H226 lung,2110 nM
same,TGI,NCI-H226 lung,> 100000 nM
same,GI50,HOP-62 NSCLC,473 nM
same,TGI,HOP-62 NSCLC,> 100000 nM
same,GI50,ACHN renal,392 nM
same,TGI,ACHN renal,> 100000 nM
same,GI50,PC-3 prostate,536 nM
same,TGI,PC-3 prostate,> 100000 nM
same,GI50,SNB-75 CNS,282 nM
same,TGI,SNB-75 CNS,> 100000 nM
same,GI50,OVCAR-3 ovarian,220 nM
same,TGI,OVCAR-3 ovarian,1200 nM
same,GI50,K-562 leukemia,2950 nM
same,TGI,K-562 leukemia,> 54500 nM
same,GI50,A549 NSCLC,803 nM
same,TGI,A549 NSCLC,3260 nM
same,GI50,MCF7 breast,292 nM
same,TGI,MCF7 breast,> 100000 nM
same,GI50,MDA-MB-435,713 nM
same,TGI,MDA-MB-435,3040 nM
same,GI50,BT-549 breast,240 nM
same,TGI,BT-549 breast,1380 nM
same,GI50,OVCAR-5 ovarian,268 nM
same,TGI,OVCAR-5 ovarian,> 22800 nM
same,GI50,SK-MEL-2 melanoma,715 nM
same,TGI,SK-MEL-2 melanoma,2740 nM
same,GI50,HS 578T breast,320 nM
same,TGI,HS 578T breast,10800 nM
same,GI50,HOP-92 NSCLC,75.7 nM
same,TGI,HOP-92 NSCLC,513 nM
same,GI50,SK-OV-3 ovarian,261 nM
same,TGI,SK-OV-3 ovarian,1640 nM
same,GI50,RPMI-8226 leukemia,1040 nM
same,TGI,RPMI-8226 leukemia,4520 nM
same,GI50,SF-268 CNS,549 nM
same,TGI,SF-268 CNS,> 100000 nM
same,GI50,SR leukemia,809 nM
same,GI50,RXF 393 renal,256 nM
same,TGI,RXF 393 renal,1220 nM
same,GI50,COLO 205 colon,748 nM
same,TGI,COLO 205 colon,2220 nM
same,GI50,MOLT-4 leukemia,257 nM
same,TGI,MOLT-4 leukemia,690 nM
same,GI50,KM12 colon,1460 nM
same,TGI,KM12 colon,4250 nM
same,GI50,SW-620 colon,1200 nM
same,TGI,SW-620 colon,> 38000 nM
same,GI50,DU-145 prostate,566 nM
same,TGI,DU-145 prostate,> 37300 nM
same,GI50,NCI/ADR-RES ovarian,3320 nM
same,TGI,NCI/ADR-RES ovarian,> 100000 nM
same,GI50,IGROV1 ovarian,85.9 nM
same,TGI,IGROV1 ovarian,380 nM
same,GI50,U251 CNS,850 nM
same,TGI,U251 CNS,2910 nM
same,GI50,M14 melanoma,655 nM
same,TGI,M14 melanoma,> 35400 nM
same,GI50,OVCAR-8 ovarian,1770 nM
same,TGI,OVCAR-8 ovarian,> 51700 nM
same,GI50,HL-60(TB) leukemia,1330 nM
same,TGI,HL-60(TB) leukemia,9150 nM
same,GI50,SN12C renal,624 nM
same,TGI,SN12C renal,> 100000 nM
same,GI50,HCT-15 colon,1110 nM
same,TGI,HCT-15 colon,4360 nM
same,GI50,CCRF-CEM leukemia,322 nM
same,TGI,CCRF-CEM leukemia,> 37000 nM
same,GI50,786-0 renal,1340 nM
same,TGI,786-0 renal,> 100000 nM
same,GI50,UACC-62 melanoma,938 nM
same,TGI,UACC-62 melanoma,3400 nM
same,GI50,SK-MEL-5 melanoma,208 nM
same,TGI,SK-MEL-5 melanoma,622 nM
same,GI50,HCT-116 colon,829 nM
same,TGI,HCT-116 colon,6430 nM
same,GI50,SNB-19 CNS,1910 nM
same,TGI,SNB-19 CNS,> 100000 nM
same,GI50,MDA-MB-231 breast,370 nM
same,TGI,MDA-MB-231 breast,1800 nM
same,GI50,NCI-H23 lung,577 nM
same,TGI,NCI-H23 lung,> 100000 nM
same,GI50,MALME-3M melanoma,114 nM
same,TGI,MALME-3M melanoma,666 nM
same,GI50,NCI-H460 lung,1040 nM
same,TGI,NCI-H460 lung,> 100000 nM
same,GI50,T-47D breast,94.1 nM
same,TGI,T-47D breast,635 nM
same,GI50,SF-295 CNS,515 nM
same,TGI,SF-295 CNS,> 100000 nM
